Assays:
Format in all cases: physicochemical
[1] = 90% particle size distribution of bead mill wet-pulverized product, Mastersizer 2000 (Test Example 5); conditions: Mastersizer 2000, SDS aqueous dispersion
Experimental: The obtained slurry was wet-pulverized with a bead mill (DYNO-MILL nanodisperser research lab type, Willy A. Bachofen AG) and then filtered to obtain an anhydrate crystal (90% particle size distribution: 2.791 μm) of the compound represented by Formula (I). The 90% particle size distribution was measured by the method described in Test Example 5.
A 90% particle size distribution was measured according to the following method and conditions. • Measuring instrument: particle size distribution measuring apparatus (Mastersizer 2000, Malvern Panalytical Ltd) • Dispersion solvent: 0.1 g of sodium dodecyl sulfate (SDS) was dissolved in 1 L of water • Rotation speed: 2500 rpm • Ultrasound: 50% • Slurry concentration: adjusted between 10 to 20%

[2] = Stability testing of wet-kneaded vs untreated dry-pulverized product (Test Example 7)
Experimental: A standard sample of 5 ng/mL (corresponding to 5 ppm with respect to the sample solution) of the compound represented by Formula (ITI) was prepared by the following method. Step 1: About 20 mg of the compound represented by Formula (III) was weighed precisely, and a mixed solution of acetonitrile and water (4:1) was added to dissolve the compound to make exactly 100 mL. Step 2: One milliliter of the solution of Step 1 was accurately taken, and a mixed solution of acetonitrile and water (4:1) was added to make exactly 100 mL. Step 3: One milliliter of the solution of Step 2 was accurately taken, and a mixed solution of acetonitrile and water (4:1) was added to make exactly 100 mL. Step 4: Five milliliters of the solution of […] was accurately taken, and a mixed solution of acetonitrile and water (4:1) was added to make exactly 20 mL, thereby obtaining a standard solution. Step 1: A sample in an amount corresponding to 50 mg of the compound represented by Formula (I) or the like was added to a 50 mL volumetric flask. Step 2: To Step 1 was added 10 mL of water, and the mixture was irradiated with ultrasonic waves for 10 minutes to disintegrate the sample completely. The ultrasonic irradiation time was extended as necessary. Step 3: To Step 2 was added 25 mL of acetonitrile, and the mixture was irradiated with ultrasonic waves for 30 minutes. Step 4: After cooling, acetonitrile was added to make exactly 50 mL, a part of the liquid was centrifuged at 13000 rpm for 10 minutes, and the supernatant was used as a sample solution. An amount of the compound represented by Formula (III) was measured with a liquid chromatograph according to the following method and conditions. • Measuring instrument: LC/MS/MS (PM No. AES676) manufactured by Agilent Technologies, Inc. • Column: L-column 24.6×150 mm, 3 μm • Column temperature: constant temperature at near 35° C. • Mobile phase A: 10 mM ammonium acetate • Mobile phase B: acetonitrile for liquid chromatography • Feed of mobile phase: The mixing ratio of mobile phase A and mobile phase B was changed as shown in Table 14 to control concentration gradient. • Post runtime: 5 minutes • Flow rate: 0.5 mL/min (retention time of S202AA: about 9 minutes) • Injection amount: 5 μL • Sample cooler temperature: constant temperature at near 10° C. • Needle washing solution: acetonitrile for liquid chromatography • Ionization method: ESI • Scan type: MEM • Polarity: positive • Precursor ion: m/z=187.2 • Product ion: m/z=64.9 • Fragmentor: 120 • Collision energy: 33 • Capillary: 4000 V • Gas temperature: 350° C. • Gas flow rate: 12 L/min • Nebulizer: 40 psi • MS uptake time: 0 to 12 minutes (Calculation Formula) Content (ppm) of compound represented by Formula(III)=MS×P/100×(100−WS)/100×AT/AS×1/50×1/80000×1000000 (Mathematical formula 6) • MS: Weighing amount (mg) of compound represented by Formula (III) • P: Purity (%) of compound represented by Formula (III) • WS: Moisture (%) of compound represented by Formula (JII) • AS: Peak area of compound represented by Formula (III) obtained from standard solution • AT: Peak area of compound represented by Formula (III) obtained from sample solution (Results)

[3] = Stability testing, study of stabilizer / blending property test (Test Example 9)
Experimental: A blending property test was performed on the compound represented by Formula (I) or the like and an additive, and the amount of the compound represented by Formula (III) in the product stored over time was evaluated. The sample and additive used in Reference Example 4 were weighed and mixed uniformly with a mortar and a pestle. An appropriate amount of purified water was added to the mixture, and wet kneading was performed with a pestle. The resulting granulated product was sieved with a 20-mesh wire mesh, and dried at an aeration temperature of 60° C. for 30 minutes in an aeration dryer (TH-80, SATAKE CHEMICAL EQUIPMENT MFG., LTD.). Thereafter, the resulting product was further sieved with a 20-mesh wire mesh to obtain samples of Examples 10 to 14.
The samples of Examples 10 to 14 were subjected to a stability testing under a condition of 60° C. glass bottle closed (referred to as 60° C. closed in Table 17) and 40° C. glass bottle closed (referred to as 40° C. closed in Table 17) to evaluate the content of the compound represented by Formula (III).
The content of the compound represented by Formula (II) was confirmed in the same manner as in Test Example 7.

[4] = 40° C. glass bottle closed, 1 month
[5] = 40° C. glass bottle closed, 2 weeks
[6] = 40° C. glass bottle closed, 3 months
[7] = 60° C. glass bottle closed, 2 weeks

## C[C@@H](Cn1c(=O)[nH]/c(=N\c2ccc(Oc3ccccn3)cc2)n(Cc2ccc(Cl)cc2)c1=O)C(=O)O [Example 7]
[1]
  90% particle size distribution: 2.791 μm

## C[C@@H](Cn1c(=O)[nH]/c(=N\c2ccc(Oc3ccccn3)cc2)n(Cc2ccc(Cl)cc2)c1=O)C(=O)O [Reference Example 4]
[2]; [4]
  Content of compound represented by Formula (III), 40° C. glass bottle closed 1M: 17.2 ppm
[2]; [5]
  Content of compound represented by Formula (III), 40° C. glass bottle closed 2W: 10.7 ppm
[2]; [6]
  Content of compound represented by Formula (III), 40° C. glass bottle closed 3M: 23.9 ppm
[2]; 40° C./75% RH glass bottle opened, 1 month
  Content of compound represented by Formula (III), 40° C./75% RH glass bottle opened 1M: 13.1 ppm
[2]; 40° C./75% RH glass bottle opened, 2 weeks
  Content of compound represented by Formula (III), 40° C./75% RH glass bottle opened 2W: 9.4 ppm
[2]; 40° C./75% RH glass bottle opened, 3 months
  Content of compound represented by Formula (III), 40° C./75% RH glass bottle opened 3M: 19.7 ppm
[2]; [7]
  Content of compound represented by Formula (III), 60° C. glass bottle closed 2W: 10.9 ppm
[2]; start of test
  Content of compound represented by Formula (III), Initial: 3.0 ppm
[3]; [4]
  Amount of compound represented by Formula (III), 40° C. closed 1M: 17.2 ppm
[3]; [5]
  Amount of compound represented by Formula (III), 40° C. closed 2W: 10.7 ppm
[3]; [6]
  Amount of compound represented by Formula (III), 40° C. closed 3M: 23.9 ppm
[3]; [7]
  Amount of compound represented by Formula (III), 60° C. closed 2W: 10.9 ppm
[3]; start of test
  Amount of compound represented by Formula (III), Initial: 3.0 ppm

— patent publication US12570627B2, “Pharmaceutical composition in which production of impurities is suppressed” (Shionogi & Co., Ltd., priority 2020, dated 2026)
